Experimental findings from patent US12448388B2, “PRMT5 inhibitors and uses thereof” (Gilead Sciences, Inc., priority 2023, dated 2025) are described below.

Format in all cases: cell-based
Assay [1] concerns SW780 (bladder, urothelial carcinoma; MTAP-Deleted). Nature of the assay: In vitro cell viability assay (CellTiter-Glo, 9 days), SW780. To be noted: Homo sapiens, SW780, 216 h, 9-day treatment. As for the experimental part: (§1) Some Compounds of the Disclosure were tested in Calu-6 (Vendor: ATCC; Cat #HTB-56; Description: lung, adenocarcinoma), LU99 (Vendor: JCRB; Cat #JCRB0080; Description: lung, giant cell carcinoma), SW780 (Vendor: ATCC; Cat #CRL-2169; Description: bladder, urothelial carcinoma), and BxPC-3 (Vendor: ATCC; Cat #CRL-1687; Description: pancreas, adenocarcinoma) cellular viability assays according to the general protocol. Seeded cells into 96-well plate and incubated overnight. Seeded an additional 10 wells per cell line in an additional 96-well plate for assessing Time Zero luminescence and incubated overnight. To treatment plates, added compounds into each well using Tecan D300e dispenser (nine three-fold dilutions starting at […]) and incubated for 9 days. Time Zero (no compound treatment, luminescence assessed on day 1) and 9-day treatment (luminescence assessed on day 10) plates were assessed using the same CellTiter-Glo® substrate protocol. Thawed CellTiter-Glo® Buffer and lyophilized CellTiter-Glo® substrate and equilibrated to room temperature prior to use. Transferred 100 ml CellTiter-Glo® Buffer into amber bottle containing CellTiter-Glo® substrate to reconstitute the lyophilized enzyme/substrate mixture. For Time Zero and 9-day treatment plates, removed all plating media. Added 100 μl fresh media/well. Added 100 μl CellTiter-Glo® Reagent per well. Mixed contents for 10 min on an orbital shaker to lyse cells. Recorded luminescence with Perkin Elmer Envision 2105 machine. Analyzed the data with GraphPad software.
Background: ATP-based viability assays read luminescence as a measure of living cells.

Assay [2] concerns Calu-6 (lung, adenocarcinoma; MTAP-WT). Nature of the assay: In vitro cell viability assay (CellTiter-Glo, 9 days), Calu-6. To be noted: Homo sapiens, Calu-6, 216 h, 9-day treatment. As to the method:
as §1

Assay [3] deals with T1, hERG ion channel (Homo sapiens, UniProt Q12809).
T1 construct: host or cells: HEK293
T1 sequence (Q12809 whole entry): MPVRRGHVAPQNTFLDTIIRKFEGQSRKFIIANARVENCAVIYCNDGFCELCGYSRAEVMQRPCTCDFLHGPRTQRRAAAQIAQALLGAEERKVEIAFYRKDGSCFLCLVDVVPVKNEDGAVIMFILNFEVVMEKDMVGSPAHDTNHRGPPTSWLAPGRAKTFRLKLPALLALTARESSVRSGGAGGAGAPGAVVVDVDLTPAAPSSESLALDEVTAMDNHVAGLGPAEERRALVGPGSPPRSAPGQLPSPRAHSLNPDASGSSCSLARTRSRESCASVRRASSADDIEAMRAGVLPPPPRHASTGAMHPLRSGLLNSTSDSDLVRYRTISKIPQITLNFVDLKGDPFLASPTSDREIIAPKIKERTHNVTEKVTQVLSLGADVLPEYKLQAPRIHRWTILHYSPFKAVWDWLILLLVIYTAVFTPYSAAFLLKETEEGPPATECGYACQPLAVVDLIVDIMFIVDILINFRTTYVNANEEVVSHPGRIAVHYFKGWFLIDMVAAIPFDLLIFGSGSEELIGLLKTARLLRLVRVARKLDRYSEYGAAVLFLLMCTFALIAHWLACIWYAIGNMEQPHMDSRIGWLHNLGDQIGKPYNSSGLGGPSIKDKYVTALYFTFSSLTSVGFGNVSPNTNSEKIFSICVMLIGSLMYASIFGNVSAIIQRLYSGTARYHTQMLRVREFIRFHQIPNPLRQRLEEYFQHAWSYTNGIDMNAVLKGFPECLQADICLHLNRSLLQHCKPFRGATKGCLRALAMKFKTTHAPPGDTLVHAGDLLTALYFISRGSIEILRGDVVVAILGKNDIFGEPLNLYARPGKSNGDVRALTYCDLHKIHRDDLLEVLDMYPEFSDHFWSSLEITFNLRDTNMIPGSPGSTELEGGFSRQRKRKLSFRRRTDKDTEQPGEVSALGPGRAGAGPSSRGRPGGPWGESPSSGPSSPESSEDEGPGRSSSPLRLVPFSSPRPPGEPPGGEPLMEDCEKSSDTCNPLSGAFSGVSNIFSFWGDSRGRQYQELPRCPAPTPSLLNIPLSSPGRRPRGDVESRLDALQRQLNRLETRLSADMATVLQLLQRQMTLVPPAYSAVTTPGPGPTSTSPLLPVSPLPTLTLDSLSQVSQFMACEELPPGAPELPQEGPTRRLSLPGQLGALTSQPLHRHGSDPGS
As to the kind of experiment: hERG assay (automated patch clamp, QPatch HT). To be noted: HEK293 hERG, * = accurate hERG measurement may be limited by compound solubility. As for the experimental part: Cell lines and cell culture: The HEK293 cell line stably expressing the hERG ion channel was provided from Charles River laboratories. Cells were maintained in tissue culture incubators per Charles River Laboratories SOP. Stocks were maintained in cryogenic storage. HEK293 cells were stably transfected with hERG cDNA.
Automated Patch Clamp Procedures: In preparation for a recording session, intracellular solution was loaded into the intracellular compartments of the QPlate and cell suspension was pipetted into the extracellular compartments. After establishment of a whole-cell configuration, membrane currents were recorded using up to 48 parallel patch clamp amplifiers in the QPatch HT® system. The current records were sampled at 2000 Hz and low-pass Bessel filtered at 400 Hz.
Valid whole-cell recordings met the following criteria: • 1. Membrane resistance ≥200 MΩ. • 2. Leak current 25% channel current or subtracted.
hERG Test Procedures: Onset and block of hERG current was measured using a stimulus voltage pattern consisting of a 500 ms prepulse to −40 mV (leakage subtraction), a 2-second activating pulse to +40 mV followed by a 2-second test pulse to −40 mV. The pulse pattern was repeated continuously at 10 s intervals from a holding potential of −80 mV. Peak tail current was measured during the −40 mV test pulse. Leakage current was calculated from the current amplitude evoked by the −40 mV prepulse and subtracted from the total membrane current record.
Data Analysis: Data acquisition and analysis were performed using the QPatch Assay Software (Sophion Bioscience A/S, Denmark). Steady state was defined by the limiting constant rate of change with time (linear time dependence). The steady state before and after test article application were used to calculate the percentage of current inhibited at each concentration. Run down, a time-dependent reduction of current amplitude, may be compensated for in the QPatch Assay Software using standard system tools. Concentration-response data was fit to an equation of the following form: […]
Where [Test] is the concentration of test compound, IC50 is the concentration of the test compound producing half-maximal inhibition, N is the Hill coefficient and % Block is the percentage of current inhibited at each concentration of the test article. Nonlinear least squares fits will be solved with the Solver add-in for Excel 2000 or later (Microsoft, Redmond, WA).
(Block of hERG is tested as a sign of cardiac risk.)

For assay [4], the system named is Symmetric Di-methyl Arginine (SDMA) signal (PRMT5 inhibition) in HCT116 MTAP-deleted cells. Nature of the assay: Symmetric di-methyl arginine image-based high content screen assay (SDMA assay), HCT116 MTAP-deleted. To be noted: for pEC50: Homo sapiens, HCT-116, HCT116 MTAP-deleted, class symbols. A digest of the protocol:
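Read-out is imaging of per-cell mean SDMA immunofluorescence (Alexa 488), with cells segmented by DAPI. Cells, MTAP-deleted or wild-type HCT116, were exposed to compound for 3 days at 37 °C before fixation. EC50 derived by 4-parameter non-linear logistic regression.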

The mark [5] stands for this setting: HCT116 WT versus HCT116 MTAP-deleted.
[6] abbreviates: HCT116 WT vs HCT116 MTAP-deleted.

pEC50, pIC50: −log10 of the molar value.

As to `Nc1nc2cc(F)c(C(=O)N3CCC[C@@H]4Oc5cc(C(F)(F)F)ccc5[C@@H]43)cc2n2cncc12` [Ff-104, (4-amino-7-fluoroimidazo[1,5-a]quinoxalin-8-yl)((4aS,9bS)-7-(trifluoromethyl)-3,4,4a,9b-tetrahydrobenzofuro[3,2-b]pyridin-1(2H)-yl)methanone], the GI50 (usually the concentration at which growth is held to half of that of the control) came to 5 nM in assay [1] and 2150 nM in assay [2]. In addition, in assay [3], the pIC50 (in general, the negative decadic logarithm of the IC50, by convention in mol/L) is 4.85.

For the compound `Nc1nc2ccc(C(=O)N3CCC[C@@H]4Oc5cc(C(F)(F)F)ccc5[C@@H]43)cc2n2cncc12` [Ff-111, (4-aminoimidazo[1,5-a]quinoxalin-8-yl)((4aS,9bS)-7-(trifluoromethyl)-3,4,4a,9b-tetrahydrobenzofuro[3,2-b]pyridin-1(2H)-yl)methanone], the GI50 was 11 nM in assay [1] and over 6400 nM in assay [2]. Further, in assay [4] (setting [5]), the EC50 selectivity is given as 258. Also, the pEC50 (commonly the EC50 on a negative log10 scale, so that one unit is a factor of ten) in assay [4] is at least 9.00. In assay [3], this compound gave a pIC50 of 5.17.

The compound `Nc1nc2cnc(C(=O)N3CC[C@H]4C[C@@H]3c3ccc(C(F)(F)F)c(F)c3O4)cc2n2cncc12` [Ff-684, (4-aminoimidazo[1,5-a]pyrido[3,4-e]pyrazin-8-yl)((2S,6R)-10-fluoro-9-(trifluoromethyl)-3,4-dihydro-2H-2,6-methanobenzo[b][1,5]oxazocin-5(6H)-yl)methanone] registered an EC50 selectivity in assay [4] (setting [6]) of 121. In addition, in assay [4], the negative-log EC50 (pEC50) is at least 9.00.

With `Nc1nc2cnc(C(=O)N3CCC[C@@H]4Oc5cc(C(F)(F)F)ccc5[C@@H]43)cc2n2cncc12` [Ff-110, (4-aminoimidazo[1,5-a]pyrido[3,4-e]pyrazin-8-yl)((4aS,9bS)-7-(trifluoromethyl)-3,4,4a,9b-tetrahydrobenzofuro[3,2-b]pyridin-1(2H)-yl)methanone], the GI50 in assay [1] is 120 nM; in assay [2] it was 1550 nM. In assay [4] (setting [5]), this compound returned an EC50 selectivity of 118. The same compound showed a pEC50 in assay [4] of at least 9.00. Also, the negative logarithm of the IC50 (pIC50) in assay [3] was 5.07.

For the compound `Nc1nc2cnc(C(=O)N3CCC[C@@H]4Oc5cc(OC(F)(F)F)cc(F)c5[C@@H]43)cc2n2cncc12` (single isomer, unassigned) [Fg-55], the 50% growth inhibitory concentration (GI50) in assay [1] amounted to 23 nM; in assay [2], 2510 nM. In addition, the EC50 selectivity in assay [4] (setting [6]) was 114. In assay [4], this compound gave a pEC50 of at least 9.00. The compound also showed a pIC50 in assay [3] of 5.21.

For `Nc1nc2cnc(C(=O)N3CCC[C@@H]4Oc5cc(OC(F)(F)F)ccc5[C@@H]43)cc2n2cncc12` [Ff-341, (4-aminoimidazo[1,5-a]pyrido[3,4-e]pyrazin-8-yl)((4aS,9bS)-7-(trifluoromethoxy)-3,4,4a,9b-tetrahydrobenzofuro[3,2-b]pyridin-1(2H)-yl)methanone], the values for the 50% growth inhibitory concentration (GI50) in assay [1] and in assay [2] were 10 nM and 2440 nM, respectively. This compound gave an EC50 selectivity in assay [4] (setting [5]) of 145. In assay [4], this compound gave a negative-log EC50 (pEC50) of at least 9.00.

In assay [3], `Cc1ncn2c1c(N)nc1cnc(C(=O)N3CCC[C@@H]4Oc5cc(C(F)(F)F)ccc5[C@@H]43)cc12` [Ff-499, (4-amino-3-methylimidazo[1,5-a]pyrido[3,4-e]pyrazin-8-yl)((4aS,9bS)-7-(trifluoromethyl)-3,4,4a,9b-tetrahydrobenzofuro[3,2-b]pyridin-1(2H)-yl)methanone] had a negative-log IC50 (pIC50) of 4.76.

For the compound `Nc1nc2cc(F)c(C(=O)N3CCO[C@@H]4Cc5cc(C(F)(F)F)ccc5[C@@H]43)cc2n2cncc12` (single isomer, unassigned) [Ff-82], in assay [3], the negative-log IC50 (pIC50) is under 4.52.

`Nc1nc2cnc(C(=O)N3CC4(CC4)C[C@@H]4Oc5cc(C(F)(F)F)ccc5[C@@H]43)cc2n2cncc12` [Ff-648, (4-aminoimidazo[1,5-a]pyrido[3,4-e]pyrazin-8-yl)((4aS,9bS)-7-(trifluoromethyl)-4a,9b-dihydro-2H-spiro[benzofuro[3,2-b]pyridine-3,1′-cyclopropan]-1(4H)-yl)methanone]: the results for the GI50 in assay [1] and in assay [2] were 12 nM and 1660 nM, respectively. In assay [4] (setting [6]), the EC50 selectivity turned out to be 50. The same compound had a pEC50 in assay [4] of at least 9.00.

Consider `C[C@@H]1CN(C(=O)c2cc3c(cc2F)nc(N)c2cncn23)[C@H]2c3cc(F)c(OC(F)(F)F)cc3C[C@H]2O1` (single isomer, unassigned) [Ff-197], for which the pIC50 in assay [3] is 4.92.

For `[2H]C1([2H])CC[C@@H]2Oc3cc(C(F)(F)F)ccc3[C@@H]2N1C(=O)c1cc2c(cn1)nc(N)c1cncn12` [Fg-60, (4-aminoimidazo[1,5-a]pyrido[3,4-e]pyrazin-8-yl)((4aS,9bS)-7-(trifluoromethyl)-3,4,4a,9b-tetrahydrobenzofuro[3,2-b]pyridin-1(2H)-yl-2,2-d2)methanone], the EC50 selectivity in assay [4] (setting [6]) is listed as 87. In addition, in assay [4], the negative logarithm of the EC50 (pEC50) is at least 9.00.

For the compound `Nc1nc2cnc(C(=O)N3CC[C@H]4C[C@@H]3c3ccc(OC(F)(F)F)cc3O4)cc2n2cncc12` [Ff-685, (4-aminoimidazo[1,5-a]pyrido[3,4-e]pyrazin-8-yl)((2S,6R)-9-(trifluoromethoxy)-3,4-dihydro-2H-2,6-methanobenzo[b][1,5]oxazocin-5(6H)-yl)methanone], the EC50 selectivity in assay [4] (setting [6]) is 108. The negative logarithm of the EC50 (pEC50) in assay [4] was 8.30 to 9.00.

Consider `Cc1ncc2c(N)nc3cnc(C(=O)N4CCC[C@@H]5Oc6cc(OC(F)(F)F)ccc6[C@@H]54)cc3n12` [Ff-340, (4-amino-1-methylimidazo[1,5-a]pyrido[3,4-e]pyrazin-8-yl)((4aS,9bS)-7-(trifluoromethoxy)-3,4,4a,9b-tetrahydrobenzofuro[3,2-b]pyridin-1(2H)-yl)methanone], for which the 50% growth inhibitory concentration (GI50) in assay [1] worked out at 23 nM; in assay [2], 2950 nM. Further, in assay [4] (setting [5]), the EC50 selectivity is recorded as 135. Moreover, in assay [4], the negative-log EC50 (pEC50) is at least 9.00.

Consider `C[C@H]1CN(C(=O)c2cc3c(cc2F)nc(N)c2cncn23)[C@H]2c3ccc(C(F)(F)F)cc3C[C@H]2O1` (single isomer, unassigned) [Ff-81], for which the 50% growth inhibitory concentration (GI50) in assay [1] was 25 nM; in assay [2], over 10000 nM. For the same compound, the negative-log IC50 (pIC50) in assay [3] was 4.56.

On to `Nc1nc2cnc(C(=O)N3CC[C@H]4C[C@@H]3c3c(F)cc(C(F)(F)F)cc3O4)cc2n2cncc12` (single isomer, unassigned) [Ff-694], for which the pIC50 in assay [3] is 4.79.

For `C[C@@H]1CN(C(=O)c2cc3c(cc2F)nc(N)c2cncn23)[C@H]2c3ccc(OC(F)(F)F)cc3C[C@H]2O1` (single isomer, unassigned) [Ff-183], the 50% growth inhibitory concentration (GI50) came to 19 nM in assay [1] and 2150 nM in assay [2]. In addition, the EC50 selectivity in assay [4] (setting [5]) was found to be 117. For the same compound, in assay [4], the pEC50 was at least 9.00.

As to `Nc1nc2cnc(C(=O)N3CCC[C@@H]4Oc5cc(C(F)(F)F)cc(F)c5[C@@H]43)cc2n2cncc12` (single isomer, unassigned) [Fg-53], the results for the concentration for 50% growth inhibition (GI50) in assay [1] and in assay [2] were 9 nM and 1260 nM, respectively. For the same compound, the EC50 selectivity in assay [4] (setting [6]) was determined as 85. The compound also had a negative-log EC50 (pEC50) in assay [4] of at least 9.00. Moreover, the pIC50 in assay [3] was 5.00.
